# In patent US10670605B2, “Cysteine reactive probes and uses thereof” (The Scripps Research Institute, priority 2015, dated 2020):
# Values joined by “and” are separate entries in the source; they are usually repeats but may differ in a detail not shown here. Equal values may be shown once.
# Experiments:
# Test in all cases: Competitive isoTOP-ABPP, cell lysates
# Format in all cases: binding
# ACAT1 C196 (P24752) = molecular target: T1, ACAT1 C196 (P24752) (Homo sapiens, UniProt P24752); conditions: for isoTOP-ABPP reactivity ratio, P24752_C196 / isoTOP-ABPP reactivity profile ratio, P24752_C196: 500 μm
# T1 sequence (P24752 34-427): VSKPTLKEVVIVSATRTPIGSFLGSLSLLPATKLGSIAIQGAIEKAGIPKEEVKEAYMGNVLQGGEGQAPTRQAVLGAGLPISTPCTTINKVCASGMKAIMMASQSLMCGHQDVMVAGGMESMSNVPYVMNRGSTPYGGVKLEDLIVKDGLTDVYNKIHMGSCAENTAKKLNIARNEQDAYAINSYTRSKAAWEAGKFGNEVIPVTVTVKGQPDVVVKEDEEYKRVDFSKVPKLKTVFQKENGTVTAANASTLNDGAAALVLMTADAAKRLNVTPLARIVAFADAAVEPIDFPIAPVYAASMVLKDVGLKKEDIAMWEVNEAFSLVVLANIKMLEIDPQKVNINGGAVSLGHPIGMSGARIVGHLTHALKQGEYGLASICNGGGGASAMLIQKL
# ACAT1 C126 (P24752) = molecular target: T2, ACAT1 C126 (P24752) (Homo sapiens, UniProt P24752); conditions: for isoTOP-ABPP reactivity ratio, P24752_C126 / isoTOP-ABPP reactivity profile ratio, P24752_C126: 500 μm
# T2 sequence (P24752 34-427): T1 sequence (P24752 34-427)
# MGMT C145 (P16455) = molecular target: T3, MGMT C145 (P16455) (Homo sapiens, UniProt P16455); conditions: for isoTOP-ABPP ratio (reactivity profile), P16455_C145: 500 μm in-vitro ramos; for isoTOP-ABPP reactivity ratio, P16455_C145 / isoTOP-ABPP reactivity profile ratio, P16455_C145: 500 μm
# T3 sequence (P16455 1-207): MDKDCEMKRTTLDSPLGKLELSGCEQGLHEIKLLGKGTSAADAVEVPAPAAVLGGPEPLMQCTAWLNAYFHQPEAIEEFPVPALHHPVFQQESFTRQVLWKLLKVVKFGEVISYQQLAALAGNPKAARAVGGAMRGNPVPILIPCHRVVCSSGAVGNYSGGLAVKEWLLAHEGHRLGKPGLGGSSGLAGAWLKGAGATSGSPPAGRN
# EZH2 C503 (Q15910) = EZH2 C503 (Q15910) (Homo sapiens, UniProt Q15910); conditions: for isoTOP-ABPP reactivity profile ratio, Q15910_C503: in-vitro_ramos_231
# ERCC3 C342 (P19447) = molecular target: T4, ERCC3 C342 (P19447) (Homo sapiens, UniProt P19447); conditions: for isoTOP-ABPP ratio (reactivity profile), P19447_C342: 500 μm in-vitro ramos_231
# T4 sequence (P19447 1-782): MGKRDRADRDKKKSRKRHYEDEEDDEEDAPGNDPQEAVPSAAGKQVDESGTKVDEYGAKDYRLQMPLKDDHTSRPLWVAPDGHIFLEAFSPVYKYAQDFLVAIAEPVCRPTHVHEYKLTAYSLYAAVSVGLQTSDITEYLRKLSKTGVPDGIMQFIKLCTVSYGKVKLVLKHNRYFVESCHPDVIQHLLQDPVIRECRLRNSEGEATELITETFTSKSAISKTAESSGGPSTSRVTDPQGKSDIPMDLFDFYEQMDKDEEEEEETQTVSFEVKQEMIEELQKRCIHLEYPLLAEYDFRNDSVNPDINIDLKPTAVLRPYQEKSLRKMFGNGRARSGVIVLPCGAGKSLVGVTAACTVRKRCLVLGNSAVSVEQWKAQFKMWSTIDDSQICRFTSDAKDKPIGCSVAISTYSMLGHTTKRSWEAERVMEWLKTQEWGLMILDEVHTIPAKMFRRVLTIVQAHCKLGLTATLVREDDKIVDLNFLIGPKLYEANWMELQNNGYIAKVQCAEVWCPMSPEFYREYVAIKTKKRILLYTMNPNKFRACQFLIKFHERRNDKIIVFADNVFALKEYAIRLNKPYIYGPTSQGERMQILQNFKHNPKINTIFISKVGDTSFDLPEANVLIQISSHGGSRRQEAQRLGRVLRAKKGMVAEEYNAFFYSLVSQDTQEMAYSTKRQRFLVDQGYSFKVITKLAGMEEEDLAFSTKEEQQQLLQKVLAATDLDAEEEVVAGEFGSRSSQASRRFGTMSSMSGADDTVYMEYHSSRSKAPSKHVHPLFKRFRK
# Method: TEV digests were pressure loaded onto a 250 μm (inner diameter) fused silica capillary column packed with C18 resin (Aqua 5 μm, Phenomenex). The samples were analyzed by multidimensional liquid chromatography tandem mass spectrometry (MudPIT), using an LTQ-Velos Orbitrap mass spectrometer (Thermo Scientific) coupled to an Agilent 1200-series quaternary pump. […] One full MS (MS1) scan (400-1800 m/z) was followed by 30 MS2 scans (ITMS) of the nth most abundant ions.
# The ratios of heavy/light for each unique peptide (DMSO/compound treated; isoTOP-ABPP ratios, R values) were quantified with in-house CIMAGE software, using default parameters (3 ms s per peak and signal to noise threshold 2.5). Site-specific engagement of electrophilic fragments was assessed by blockade of IA-alkyne probe labeling. […] Ratios for unique peptide entries were calculated for each experiment; overlapping peptides with the same modified cysteine (e.g. different charge states, MudPIT chromatographic steps or tryptic termini) were grouped together and the median ratio was reported as the final ratio (R). The peptide ratios reported by CIMAGE were further filtered to ensure the removal or correction of low quality ratios in each individual dataset. The quality filters applied were the following: removal of half tryptic peptides; for ratios with high standard deviations from the median (90% of the median or above) the lowest ratio was taken instead of the median; removal of peptides with R=20 and only a single ms2 event triggered during the elution of the parent ion; manual annotation of all the peptides with ratios of 20, removing any peptides with low-quality elution profiles that remained after the previous curation steps. Proteome reactivity values for individual fragments were computed as the percentage of the total quantified cysteine-containing peptides with R values≥4 (defined as liganded cysteines) for each replicate experiment and the final proteome reactivity value was calculated as the mean for all replicate experiments for each fragment from both MDA-MB-231 and Ramos cellular proteomes.
# Biological replicates of the same compound and cell-line were averaged if the standard deviation was below 60% of the mean; otherwise the lowest value of the ratio set was taken. For peptides with multiple modified cysteines, the cysteine with the highest number of quantification events was kept and the remaining, redundant peptides were discarded. […] Although the majority (>75% of fragments) were profiled in at least two biological replicates, some data from single replicate MS experiments were included.
# Sequence of EZH2 C503 (Q15910) (Q15910 whole entry): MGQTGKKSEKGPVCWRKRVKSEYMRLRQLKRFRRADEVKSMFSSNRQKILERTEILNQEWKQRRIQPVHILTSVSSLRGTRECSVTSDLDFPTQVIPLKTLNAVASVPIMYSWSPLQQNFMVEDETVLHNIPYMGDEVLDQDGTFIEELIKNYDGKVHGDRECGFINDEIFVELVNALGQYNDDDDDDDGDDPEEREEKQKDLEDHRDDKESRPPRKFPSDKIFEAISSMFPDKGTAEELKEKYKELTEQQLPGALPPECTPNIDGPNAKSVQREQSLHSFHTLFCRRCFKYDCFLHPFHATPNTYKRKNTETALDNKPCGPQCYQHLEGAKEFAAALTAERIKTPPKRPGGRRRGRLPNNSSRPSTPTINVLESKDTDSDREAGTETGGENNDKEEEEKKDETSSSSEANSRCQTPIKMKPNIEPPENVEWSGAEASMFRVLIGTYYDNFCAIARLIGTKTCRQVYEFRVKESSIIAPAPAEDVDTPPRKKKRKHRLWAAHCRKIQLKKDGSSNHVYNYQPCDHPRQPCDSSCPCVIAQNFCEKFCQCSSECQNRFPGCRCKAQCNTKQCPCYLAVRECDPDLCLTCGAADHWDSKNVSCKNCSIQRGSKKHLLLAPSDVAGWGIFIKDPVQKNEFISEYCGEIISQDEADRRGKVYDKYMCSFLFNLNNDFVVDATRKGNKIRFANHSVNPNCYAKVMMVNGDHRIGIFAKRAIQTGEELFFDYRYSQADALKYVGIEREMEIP
# Sequence of EZH2 C503 (Q15910) (O75530 whole entry partner): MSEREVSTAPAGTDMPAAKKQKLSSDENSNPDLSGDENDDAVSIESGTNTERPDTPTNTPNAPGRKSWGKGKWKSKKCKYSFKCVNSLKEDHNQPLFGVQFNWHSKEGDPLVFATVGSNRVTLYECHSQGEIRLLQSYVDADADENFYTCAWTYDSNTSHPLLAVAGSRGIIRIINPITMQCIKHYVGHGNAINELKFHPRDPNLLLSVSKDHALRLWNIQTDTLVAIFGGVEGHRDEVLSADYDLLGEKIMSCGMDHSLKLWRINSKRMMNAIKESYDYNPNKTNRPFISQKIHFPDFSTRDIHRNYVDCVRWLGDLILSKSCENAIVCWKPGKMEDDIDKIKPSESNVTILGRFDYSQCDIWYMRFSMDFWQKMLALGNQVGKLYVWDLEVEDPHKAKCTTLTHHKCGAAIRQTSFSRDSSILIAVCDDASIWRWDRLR
# Sequence of EZH2 C503 (Q15910) (Q15022 whole entry partner): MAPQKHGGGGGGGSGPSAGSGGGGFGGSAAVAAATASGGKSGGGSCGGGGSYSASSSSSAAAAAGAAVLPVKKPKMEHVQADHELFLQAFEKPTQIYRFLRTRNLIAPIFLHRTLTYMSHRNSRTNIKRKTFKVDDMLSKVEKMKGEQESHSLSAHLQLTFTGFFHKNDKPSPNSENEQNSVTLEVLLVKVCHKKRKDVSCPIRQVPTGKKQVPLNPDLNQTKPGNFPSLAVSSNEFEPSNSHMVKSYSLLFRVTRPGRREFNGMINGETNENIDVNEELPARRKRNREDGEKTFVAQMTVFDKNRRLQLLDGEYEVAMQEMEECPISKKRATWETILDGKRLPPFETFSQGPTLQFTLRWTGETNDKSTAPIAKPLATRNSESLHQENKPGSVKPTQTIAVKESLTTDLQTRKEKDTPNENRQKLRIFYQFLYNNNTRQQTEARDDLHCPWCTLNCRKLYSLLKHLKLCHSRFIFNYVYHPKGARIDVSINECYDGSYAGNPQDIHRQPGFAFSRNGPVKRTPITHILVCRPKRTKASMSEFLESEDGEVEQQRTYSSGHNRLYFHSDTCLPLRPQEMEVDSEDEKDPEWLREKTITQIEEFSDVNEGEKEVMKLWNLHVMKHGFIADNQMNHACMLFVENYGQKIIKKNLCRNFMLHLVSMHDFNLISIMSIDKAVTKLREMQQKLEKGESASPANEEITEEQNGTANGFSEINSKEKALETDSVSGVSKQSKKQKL
Compound,"isoTOP-ABPP ratio (reactivity profile), P24752_C196 (ACAT1 C196 (P24752); 500 μm in-vitro ramos)","isoTOP-ABPP ratio (reactivity profile), P24752_C126 (ACAT1 C126 (P24752); 500 μm in-vitro ramos)","isoTOP-ABPP ratio (reactivity profile), P16455_C145 (MGMT C145 (P16455))","isoTOP-ABPP ratio (reactivity profile), P19447_C342 (ERCC3 C342 (P19447))","isoTOP-ABPP ratio (reactivity profile), P24752_C196 (ACAT1 C196 (P24752); 500 μm in-vitro ramos_231)","isoTOP-ABPP ratio (reactivity profile), P24752_C126 (ACAT1 C126 (P24752); 500 μm in-vitro ramos_231)","isoTOP-ABPP reactivity profile ratio, P24752_C196 (ACAT1 C196 (P24752); in-vitro_ramos)","isoTOP-ABPP reactivity profile ratio, P24752_C126 (ACAT1 C126 (P24752); in-vitro_ramos)","isoTOP-ABPP reactivity profile ratio, P24752_C196 (ACAT1 C196 (P24752); in-vitro_ramos_231)",other results
CC(Br)C(=O)Nc1cc(C(F)(F)F)cc(C(F)(F)F)c1 (centres unmarked) [compound 24],1.1,1.1,20.0,,,,,,,"isoTOP-ABPP ratio (reactivity profile), Q15910_C503 (EZH2 C503 (Q15910); 500 μm in-vitro ramos): 1.3"
CC(Cl)C(=O)Nc1cc(C(F)(F)F)cc(C(F)(F)F)c1 (centres unmarked) [compound 25],,,,0.9,0.9,0.9,,,,"isoTOP-ABPP ratio (reactivity profile), Q15910_C503 (EZH2 C503 (Q15910); 500 μm in-vitro ramos_231): 0.8"
CC(C)CCOCCNC(=O)CCl [compound 27],1.1,1.3,20.0,0.8 and 1.1,0.9 and 1.0,0.9 and 1.0,,,,
O=C(CCl)N1CCN(CC(=O)N2CCOCC2)CC1 [compound 29],1.0,0.8,20.0,0.8,1.3,1.1,,,,"isoTOP-ABPP ratio (reactivity profile), Q15910_C503 (EZH2 C503 (Q15910); 500 μm in-vitro ramos_231): 1.4"
CC(C)(C)c1cc(NC(=O)CCl)on1 [compound 32],,,,,,,,,,"isoTOP-ABPP reactivity ratio, P24752_C196 (ACAT1 C196 (P24752); in-vitro_ramos): 2.0; isoTOP-ABPP reactivity ratio, P24752_C196 (ACAT1 C196 (P24752); in-vitro_ramos_231): 2.3; isoTOP-ABPP reactivity ratio, P24752_C126 (ACAT1 C126 (P24752); in-vitro_ramos): 8.6; isoTOP-ABPP reactivity ratio, P24752_C126 (ACAT1 C126 (P24752); in-vitro_ramos_231): 7.3; isoTOP-ABPP reactivity ratio, P16455_C145 (MGMT C145 (P16455); in-vitro_ramos): 20.0; isoTOP-ABPP reactivity ratio, Q15910_C503 (EZH2 C503 (Q15910); 500 μm, in-vitro_ramos): 1.7"
Cc1ccc(C=C(C#N)C(=O)NCCN2CCOCC2)cc1 [compound 41],,,,,,,,,,"isoTOP-ABPP reactivity ratio, P19447_C342 (ERCC3 C342 (P19447); 500 μm, in-vitro_ramos_231): 1.1; isoTOP-ABPP reactivity ratio, P24752_C196 (ACAT1 C196 (P24752); in-vitro_ramos): 1.0; isoTOP-ABPP reactivity ratio, P24752_C196 (ACAT1 C196 (P24752); in-vitro_ramos_231): 1.3; isoTOP-ABPP reactivity ratio, P24752_C126 (ACAT1 C126 (P24752); in-vitro_ramos): 0.9; isoTOP-ABPP reactivity ratio, P24752_C126 (ACAT1 C126 (P24752); in-vitro_ramos_231): 1.0; isoTOP-ABPP reactivity ratio, P16455_C145 (MGMT C145 (P16455); in-vitro_ramos_231): 1.9"
N#CC(=Cc1ccc(-c2ccccc2Cl)o1)C(N)=O [compound 42],,,,,,,0.8,0.8,,"isoTOP-ABPP reactivity profile ratio, P16455_C145 (MGMT C145 (P16455); in-vitro_ramos): 0.9"
COc1cc(NC(=O)CCl)cc(OC)c1 [compound 43],,,,,,,2.3,20.0,2.4,"isoTOP-ABPP reactivity profile ratio, Q15910_C503 (EZH2 C503 (Q15910); 500 μm): 20.0"
O=C(CCl)Nc1cccc2ncccc12 [compound 51],,,,,,,,1.2,1.1,"isoTOP-ABPP reactivity profile ratio, P19447_C342 (ERCC3 C342 (P19447); 500 μm, in-vitro_ramos_231): 1.4; isoTOP-ABPP reactivity profile ratio, P24752_C126 (ACAT1 C126 (P24752); in-vitro_ramos_231): 1.0; isoTOP-ABPP reactivity profile ratio, P16455_C145 (MGMT C145 (P16455); in-vitro_ramos): 20.0"
O=C(CCl)Nc1ccc(-c2ccccc2)cc1 [compound 52],,,,,,,1.5,,1.3,"isoTOP-ABPP reactivity profile ratio, P19447_C342 (ERCC3 C342 (P19447); 500 μm, in-vitro_ramos_231): 1.0; isoTOP-ABPP reactivity profile ratio, P24752_C126 (ACAT1 C126 (P24752); in-vitro_ramos_231): 1.3; isoTOP-ABPP reactivity profile ratio, Q15910_C503 (EZH2 C503 (Q15910); 500 μm): 0.9"
